Assay results as given in US20240376068A1, “SIGMA LIGAND COMPOUNDS AND USES THEREOF” (Minerva Neurosciences, Inc., priority 2020, published 2024).
Where two headings read alike, the source gives them in different places.

Experiments:
[1] = target: sigma 1 (h) (Homo sapiens (Human), UniProt Q99720); test: Sigma-1 binding assay
Experimental: (§1) Assays for determining Sigma-1 and Sigma-2 binding values were performed according to Ganapathy, M. E. et al. (1999), J. Pharmacol. Exp. Ther., 289:251-260.

[2] = target: Sigma 2 (h) (Homo sapiens (Human), UniProt Q5BJF2); test: Sigma-2 binding assay
Chain of Sigma 2 (h) (Q5BJF2 whole entry): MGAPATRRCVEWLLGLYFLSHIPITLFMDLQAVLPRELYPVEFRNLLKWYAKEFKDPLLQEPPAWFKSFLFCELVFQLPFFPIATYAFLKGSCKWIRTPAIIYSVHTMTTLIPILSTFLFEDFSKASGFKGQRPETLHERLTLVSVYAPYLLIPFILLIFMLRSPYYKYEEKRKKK
Experimental: as §1

[3] = target: 5-HT2A (h) (Homo sapiens (Human), UniProt P28223); test: 5-HT2A binding assay; settings: antagonist radioligand, HEK-293 cells
Chain of 5-HT2A (h) (P28223 whole entry): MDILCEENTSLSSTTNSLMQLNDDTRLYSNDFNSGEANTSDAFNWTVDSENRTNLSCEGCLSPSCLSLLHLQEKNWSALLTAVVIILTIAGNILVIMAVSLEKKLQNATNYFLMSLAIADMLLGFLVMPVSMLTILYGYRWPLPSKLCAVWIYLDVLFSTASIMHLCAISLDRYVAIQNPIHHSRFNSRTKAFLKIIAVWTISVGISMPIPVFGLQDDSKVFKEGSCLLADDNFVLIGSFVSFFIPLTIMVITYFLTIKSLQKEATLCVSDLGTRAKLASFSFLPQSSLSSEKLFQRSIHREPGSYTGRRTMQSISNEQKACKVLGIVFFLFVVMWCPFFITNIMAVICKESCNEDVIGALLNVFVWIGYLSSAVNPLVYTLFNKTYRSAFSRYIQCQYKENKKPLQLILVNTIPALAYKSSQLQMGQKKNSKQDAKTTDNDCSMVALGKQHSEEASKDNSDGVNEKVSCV
Experimental: Assays for determining 5-HT2A binding values were performed according to: Bonhaus, D. W. et al. (1995), Brit. J. Pharmacol., 115:622-628; Schwinn, D. A. et al. (1995), J. Pharmacol. Exp. Ther., 272:134-142; and Vicentic, A. et al. (2002), J. Pharmacol. Exp. Ther., 302:58-65; Bylund D B et al. (1994), Pharmacol. Rev. 46:121-136. Each of which is incorporated by reference in its entirety.

[4] = target: T1, α1a (h) (Homo sapiens (Human), UniProt P35348); test: α1A adrenergic agonist effect assay; format: cell-based; settings: for IC50: agonist effect, CHO cells; for activation at 1 µM: α1A(h) agonist effect, read-out: % stimulation relative to control (1 μM)
T1 sequence (P35348 whole entry): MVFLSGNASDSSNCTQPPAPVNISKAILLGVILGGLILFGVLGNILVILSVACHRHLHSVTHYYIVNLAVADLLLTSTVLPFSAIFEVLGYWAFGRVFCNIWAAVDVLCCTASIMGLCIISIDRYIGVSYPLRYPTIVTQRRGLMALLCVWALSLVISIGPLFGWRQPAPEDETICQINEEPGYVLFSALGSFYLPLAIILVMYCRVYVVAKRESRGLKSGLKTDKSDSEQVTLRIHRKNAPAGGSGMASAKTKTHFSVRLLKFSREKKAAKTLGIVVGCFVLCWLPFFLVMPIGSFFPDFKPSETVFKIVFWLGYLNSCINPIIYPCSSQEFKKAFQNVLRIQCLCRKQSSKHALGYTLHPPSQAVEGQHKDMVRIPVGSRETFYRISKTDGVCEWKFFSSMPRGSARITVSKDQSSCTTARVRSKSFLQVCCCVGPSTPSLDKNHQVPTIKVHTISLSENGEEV
Experimental: Assays for determining the agonist effect on α1A (h) were performed according to the procedure described in Example 21, and the results are represented in Table D below.

[5] = target: T2, α1b (h) (Homo sapiens (Human), UniProt P35368); test: α1B adrenergic agonist effect assay; format: cell-based; settings: CHO cells
T2 sequence (P35368 whole entry): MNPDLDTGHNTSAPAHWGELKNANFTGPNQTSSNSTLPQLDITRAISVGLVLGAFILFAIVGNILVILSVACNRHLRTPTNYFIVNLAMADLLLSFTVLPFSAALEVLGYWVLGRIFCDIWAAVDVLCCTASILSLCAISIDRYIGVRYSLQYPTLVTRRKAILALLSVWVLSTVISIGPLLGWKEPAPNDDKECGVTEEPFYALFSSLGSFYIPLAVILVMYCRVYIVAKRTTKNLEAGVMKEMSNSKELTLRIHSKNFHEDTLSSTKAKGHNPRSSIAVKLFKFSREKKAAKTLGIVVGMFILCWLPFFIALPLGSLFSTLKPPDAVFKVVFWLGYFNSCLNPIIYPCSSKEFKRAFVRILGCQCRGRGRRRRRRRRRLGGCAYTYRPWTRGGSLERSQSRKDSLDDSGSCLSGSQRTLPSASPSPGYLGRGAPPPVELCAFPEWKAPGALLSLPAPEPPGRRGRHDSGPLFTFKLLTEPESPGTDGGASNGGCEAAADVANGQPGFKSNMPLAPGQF

[6] = target: T3, α1d (h) (Homo sapiens (Human), UniProt P25100); test: α1D adrenergic agonist effect assay; format: cell-based; settings: CHO cells
T3 sequence (P25100 whole entry): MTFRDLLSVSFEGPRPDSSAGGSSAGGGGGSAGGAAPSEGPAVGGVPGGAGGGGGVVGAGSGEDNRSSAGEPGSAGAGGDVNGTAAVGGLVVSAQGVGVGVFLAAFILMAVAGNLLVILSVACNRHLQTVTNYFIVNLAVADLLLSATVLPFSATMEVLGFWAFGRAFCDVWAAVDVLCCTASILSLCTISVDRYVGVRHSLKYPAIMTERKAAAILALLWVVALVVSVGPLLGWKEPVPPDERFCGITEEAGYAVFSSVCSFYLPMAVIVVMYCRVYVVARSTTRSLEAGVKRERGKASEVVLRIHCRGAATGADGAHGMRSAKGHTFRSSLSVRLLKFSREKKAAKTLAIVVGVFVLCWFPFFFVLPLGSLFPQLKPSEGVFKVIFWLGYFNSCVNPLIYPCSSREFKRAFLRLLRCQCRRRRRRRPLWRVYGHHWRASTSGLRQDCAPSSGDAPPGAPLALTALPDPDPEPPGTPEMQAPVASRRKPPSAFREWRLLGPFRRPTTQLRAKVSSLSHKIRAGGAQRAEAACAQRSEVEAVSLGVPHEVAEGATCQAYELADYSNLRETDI

[7] = target: T1, α1a (h); test: α1A adrenergic antagonist effect assay; format: cell-based; settings: for IC50: antagonist effect, CHO cells; for inhibition at 1 µM: α1A(h) antagonist effect, read-out: % inhibition of control values (1 μM)
Experimental: Assays for determining the antagonist effect on α1A (h) were performed according to the procedure described in Example 21, and the results are represented in Table E below. […] No antagonist effect is observed for the other compounds.

[8] = target: T2, α1b (h); test: α1B adrenergic antagonist effect assay; format: cell-based; settings: CHO cells
[9] = target: T3, α1d (h); test: α1D adrenergic antagonist effect assay; format: cell-based; settings: CHO cells
[10] = test system: Vero-E6 cell line; test: Toxicity evaluation on Vero-E6 cell line; format: cell-based; settings: Vero E6, 50 μM to 0.37 μM, 72 h post treatment
Experimental: Day 1: Cell were seeded in 96 wells plate, Vero E6, P40, 10000 cells/well. Growth conditions included medium DMEM high glucose.
Day 2: Compounds were diluted in a mix of 50% DMSO and 50% growth medium to. 10 mM concentration was used for PB28 (10 mg vial from Tocris, 1-Cyclohexyl-4-(3-(5-methoxy-1,2,3,4-tetrahydronaphthalen-1-yl)-n-propyl)piperazine dihydrochloride, see Gordon et al. Nature 2020, 583, […]). Other compounds were prepared at 2 mM concentration stock solution. Cells were treated from 50 μM to 0.37 μM by serial dilution two-fold dilution in triplicate. Controls were designed to include the same concentration of DMSO for each tested products.
Day 5: For a 72 h post treatment, cells were fixed with formalin and stained with Hoetsch33342. Cells were imaged using a Cell Insight CX7 high content screening microscope. Number of cells and nuclear parameters were assessed using an internal cytotoxicity testing protocol.

[11] = target: hERG (Homo sapiens (Human), UniProt Q12809); test: hERG inhibition assay
Chain of hERG (Q12809 whole entry): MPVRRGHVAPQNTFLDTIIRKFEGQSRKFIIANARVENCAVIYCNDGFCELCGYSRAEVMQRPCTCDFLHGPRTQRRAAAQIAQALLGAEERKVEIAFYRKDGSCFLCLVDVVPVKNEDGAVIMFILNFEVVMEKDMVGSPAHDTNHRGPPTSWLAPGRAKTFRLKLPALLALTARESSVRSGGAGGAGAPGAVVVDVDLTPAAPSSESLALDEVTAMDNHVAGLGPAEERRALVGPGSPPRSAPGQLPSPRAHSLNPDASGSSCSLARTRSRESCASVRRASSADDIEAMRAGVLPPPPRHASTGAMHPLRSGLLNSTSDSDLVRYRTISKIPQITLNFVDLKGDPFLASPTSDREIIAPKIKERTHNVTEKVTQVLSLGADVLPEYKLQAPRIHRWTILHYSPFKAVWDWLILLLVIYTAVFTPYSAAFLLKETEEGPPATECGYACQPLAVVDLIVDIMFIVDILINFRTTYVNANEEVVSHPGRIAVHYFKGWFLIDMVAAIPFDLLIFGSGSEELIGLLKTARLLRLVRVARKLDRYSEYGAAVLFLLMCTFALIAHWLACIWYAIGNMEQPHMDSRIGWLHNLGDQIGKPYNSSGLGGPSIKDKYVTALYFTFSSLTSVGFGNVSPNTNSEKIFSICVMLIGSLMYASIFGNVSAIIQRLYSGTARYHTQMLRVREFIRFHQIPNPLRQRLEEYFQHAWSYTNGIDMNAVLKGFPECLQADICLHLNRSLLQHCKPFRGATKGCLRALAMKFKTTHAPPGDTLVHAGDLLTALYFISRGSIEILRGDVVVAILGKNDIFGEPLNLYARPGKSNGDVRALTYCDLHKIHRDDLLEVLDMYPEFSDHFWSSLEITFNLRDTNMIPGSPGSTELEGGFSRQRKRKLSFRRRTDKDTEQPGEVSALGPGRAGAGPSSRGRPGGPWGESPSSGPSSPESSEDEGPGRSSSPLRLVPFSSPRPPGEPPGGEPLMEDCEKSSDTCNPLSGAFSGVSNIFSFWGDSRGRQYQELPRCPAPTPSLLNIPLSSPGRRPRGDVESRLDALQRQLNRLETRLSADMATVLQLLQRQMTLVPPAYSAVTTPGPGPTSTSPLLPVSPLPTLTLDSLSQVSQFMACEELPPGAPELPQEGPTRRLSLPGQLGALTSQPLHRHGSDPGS

[12] = target: dopamine D2S receptor (Homo sapiens (Human), UniProt P14416); test: Dopamine D2S receptor binding assay (Eurofins Cerep item 1322); settings: [3H]7-OH-DPAT, read-out: % inhibition of control specific binding (1 μM)
Chain of dopamine D2S receptor (P14416 other isoform, or with tags, fused parts or gaps): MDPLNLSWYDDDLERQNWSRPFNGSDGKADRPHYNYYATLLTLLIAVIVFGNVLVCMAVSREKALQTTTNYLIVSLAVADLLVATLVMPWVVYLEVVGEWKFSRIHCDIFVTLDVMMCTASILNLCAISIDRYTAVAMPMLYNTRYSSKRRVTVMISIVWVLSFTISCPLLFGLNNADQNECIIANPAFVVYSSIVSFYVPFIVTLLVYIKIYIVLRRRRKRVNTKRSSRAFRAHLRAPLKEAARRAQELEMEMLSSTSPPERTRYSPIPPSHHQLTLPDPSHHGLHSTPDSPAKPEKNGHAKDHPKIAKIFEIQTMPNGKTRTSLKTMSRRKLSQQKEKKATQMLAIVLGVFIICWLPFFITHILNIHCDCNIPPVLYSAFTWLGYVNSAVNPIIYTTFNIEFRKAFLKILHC
Experimental: Assays for determining dopamine D2S receptor binding values were performed according to Eurofins Cerep protocol item 1322 and the results are represented in Table C below. The parameters used for the assay are described below. […] Common antipsychotics, in contrast, block dopamine receptors (Keefe, et al., J Clin Psychiatry. 2018; 79 (3): 17m11753).

[13] = target: 5HT2A (Homo sapiens (Human), UniProt P28223); test: 5HT2A agonist effect assay; format: cell-based; settings: for activation at 0.1 µM: 100 nM, read-out: % stimulation relative to control (100 nM); for activation at 1 µM: read-out: % stimulation relative to control (1 μM)
Experimental: Assays for determining the agonist effect on 5HT2A were performed according to the procedure described in Example 21, and the results are represented in Table F below. The compounds in Table F have no agonist effect on 5HT2A at 1 μM and 100 nM.

[14] = [3H](+)pentazocine, Jurkat cells, read-out: Sigma-1 Ki
[15] = [3H]DTG (+1 μM (+)pentazocine), Jurkat cells, read-out: Sigma-2 Ki

Chain of sigma 1 (h) (Q99720 whole entry): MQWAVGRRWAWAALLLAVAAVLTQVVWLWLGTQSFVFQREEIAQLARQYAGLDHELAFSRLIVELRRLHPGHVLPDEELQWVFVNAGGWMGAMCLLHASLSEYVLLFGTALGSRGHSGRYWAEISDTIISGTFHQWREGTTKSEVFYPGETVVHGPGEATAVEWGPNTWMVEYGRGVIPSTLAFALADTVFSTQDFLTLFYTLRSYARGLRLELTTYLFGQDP

| SMILES | Ki [1, 14] [nM] | Ki [2, 15] [nM] | IC50 [3] [nM] | IC50 [4] [nM] | IC50 [5] [nM] | IC50 [6] [nM] | IC50 [7] [nM] | IC50 [8] [nM] | IC50 [9] [nM] | cytotoxicity (cell number) [10] | IC50 [11] [nM] | Ki [1] [nM] | Ki [2] [nM] | activation at 1 µM [4] [%] | inhibition at 1 µM [7] [%] | inhibition at 1 µM [12] [%] | activation at 0.1 µM [13] [%] | activation at 1 µM [13] [%] |
| --- | --- | --- | --- | --- | --- | --- | --- | --- | --- | --- | --- | --- | --- | --- | --- | --- | --- | --- |
| CCCN1CCN(c2ccc3c(c2)CN(C(=O)OCc2ccccc2)CC3(C)C)CC1 [Compound 2, benzyl 4,4-dimethyl-7-(4-propylpiperazin-1-yl)-3,4-dihydroisoquinoline-2(1H)-carboxylate] | 5 to 50 | 5 to 50 | > 1000 | > 1000 | > 1000 | > 1000 | > 1000 | > 1000 | > 1000 | not cytotoxic | > 3000 | – | – | – | – | – | – | – |
| CC1(C)CCN(C2CCCC2)Cc2cc(-c3ccc(C(F)(F)F)cc3)ccc21 [Compound 10, 2-cyclopentyl-5,5-dimethyl-8-(4-(trifluoromethyl)phenyl)-2,3,4,5-tetrahydro-1H-benzo[c]azepine] | – | – | > 1000 | > 1000 | > 1000 | > 1000 | > 1000 | > 1000 | > 1000 | – | > 3000 | > 500 | 5 to 50 | – | – | – | – | – |
| CC(C)OC(=O)N1CCC(C)(C)c2ccc(N3CCN(C4CCCC4)CC3)cc2C1 [Compound 79, isopropyl 8-(4-cyclopentylpiperazin-1-yl)-5,5-dimethyl-1,3,4,5-tetrahydro-2H-benzo[c]azepine-2-carboxylate] | 0.1 to 5 | 5 to 50 | – | – | – | – | – | – | – | – | > 3000 | – | – | 0 | 13 | 19 | 1 | 0 |
| CC1(C)CCN(S(=O)(=O)c2cccc(Cl)c2)Cc2cc(N3CCC(N4CCOCC4)CC3)ccc21 [Compound 80, 4-(1-(2-((3-chlorophenyl)sulfonyl)-5,5-dimethyl-2,3,4,5-tetrahydro-1H-benzo[c]azepin-8-yl)piperidin-4-yl)morpholine] | 0.1 to 5 | 50 to 100 | – | – | – | – | – | – | – | – | > 3000 | – | – | 0 | 15 | 4 | 0 | 1 |
